Test results as given in ChEMBL document CHEMBL1201862, “PubChem BioAssay data set” (2004).
Activity calls are given as the source filed them.

Target: T1, Fatty acid synthase (Homo sapiens, UniProt P49327)
Experiment: inhibition of human FAS-TE enzyme activity – biochemical, kinetic fluorescence intensity, dose response (AID 624326);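 further: rate of fluorescence rise from hydrolysis of a fluorogenic O-methyl fluorescein ester substrate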
Type: functional
Details: not given

T1 sequence (P49327 whole entry): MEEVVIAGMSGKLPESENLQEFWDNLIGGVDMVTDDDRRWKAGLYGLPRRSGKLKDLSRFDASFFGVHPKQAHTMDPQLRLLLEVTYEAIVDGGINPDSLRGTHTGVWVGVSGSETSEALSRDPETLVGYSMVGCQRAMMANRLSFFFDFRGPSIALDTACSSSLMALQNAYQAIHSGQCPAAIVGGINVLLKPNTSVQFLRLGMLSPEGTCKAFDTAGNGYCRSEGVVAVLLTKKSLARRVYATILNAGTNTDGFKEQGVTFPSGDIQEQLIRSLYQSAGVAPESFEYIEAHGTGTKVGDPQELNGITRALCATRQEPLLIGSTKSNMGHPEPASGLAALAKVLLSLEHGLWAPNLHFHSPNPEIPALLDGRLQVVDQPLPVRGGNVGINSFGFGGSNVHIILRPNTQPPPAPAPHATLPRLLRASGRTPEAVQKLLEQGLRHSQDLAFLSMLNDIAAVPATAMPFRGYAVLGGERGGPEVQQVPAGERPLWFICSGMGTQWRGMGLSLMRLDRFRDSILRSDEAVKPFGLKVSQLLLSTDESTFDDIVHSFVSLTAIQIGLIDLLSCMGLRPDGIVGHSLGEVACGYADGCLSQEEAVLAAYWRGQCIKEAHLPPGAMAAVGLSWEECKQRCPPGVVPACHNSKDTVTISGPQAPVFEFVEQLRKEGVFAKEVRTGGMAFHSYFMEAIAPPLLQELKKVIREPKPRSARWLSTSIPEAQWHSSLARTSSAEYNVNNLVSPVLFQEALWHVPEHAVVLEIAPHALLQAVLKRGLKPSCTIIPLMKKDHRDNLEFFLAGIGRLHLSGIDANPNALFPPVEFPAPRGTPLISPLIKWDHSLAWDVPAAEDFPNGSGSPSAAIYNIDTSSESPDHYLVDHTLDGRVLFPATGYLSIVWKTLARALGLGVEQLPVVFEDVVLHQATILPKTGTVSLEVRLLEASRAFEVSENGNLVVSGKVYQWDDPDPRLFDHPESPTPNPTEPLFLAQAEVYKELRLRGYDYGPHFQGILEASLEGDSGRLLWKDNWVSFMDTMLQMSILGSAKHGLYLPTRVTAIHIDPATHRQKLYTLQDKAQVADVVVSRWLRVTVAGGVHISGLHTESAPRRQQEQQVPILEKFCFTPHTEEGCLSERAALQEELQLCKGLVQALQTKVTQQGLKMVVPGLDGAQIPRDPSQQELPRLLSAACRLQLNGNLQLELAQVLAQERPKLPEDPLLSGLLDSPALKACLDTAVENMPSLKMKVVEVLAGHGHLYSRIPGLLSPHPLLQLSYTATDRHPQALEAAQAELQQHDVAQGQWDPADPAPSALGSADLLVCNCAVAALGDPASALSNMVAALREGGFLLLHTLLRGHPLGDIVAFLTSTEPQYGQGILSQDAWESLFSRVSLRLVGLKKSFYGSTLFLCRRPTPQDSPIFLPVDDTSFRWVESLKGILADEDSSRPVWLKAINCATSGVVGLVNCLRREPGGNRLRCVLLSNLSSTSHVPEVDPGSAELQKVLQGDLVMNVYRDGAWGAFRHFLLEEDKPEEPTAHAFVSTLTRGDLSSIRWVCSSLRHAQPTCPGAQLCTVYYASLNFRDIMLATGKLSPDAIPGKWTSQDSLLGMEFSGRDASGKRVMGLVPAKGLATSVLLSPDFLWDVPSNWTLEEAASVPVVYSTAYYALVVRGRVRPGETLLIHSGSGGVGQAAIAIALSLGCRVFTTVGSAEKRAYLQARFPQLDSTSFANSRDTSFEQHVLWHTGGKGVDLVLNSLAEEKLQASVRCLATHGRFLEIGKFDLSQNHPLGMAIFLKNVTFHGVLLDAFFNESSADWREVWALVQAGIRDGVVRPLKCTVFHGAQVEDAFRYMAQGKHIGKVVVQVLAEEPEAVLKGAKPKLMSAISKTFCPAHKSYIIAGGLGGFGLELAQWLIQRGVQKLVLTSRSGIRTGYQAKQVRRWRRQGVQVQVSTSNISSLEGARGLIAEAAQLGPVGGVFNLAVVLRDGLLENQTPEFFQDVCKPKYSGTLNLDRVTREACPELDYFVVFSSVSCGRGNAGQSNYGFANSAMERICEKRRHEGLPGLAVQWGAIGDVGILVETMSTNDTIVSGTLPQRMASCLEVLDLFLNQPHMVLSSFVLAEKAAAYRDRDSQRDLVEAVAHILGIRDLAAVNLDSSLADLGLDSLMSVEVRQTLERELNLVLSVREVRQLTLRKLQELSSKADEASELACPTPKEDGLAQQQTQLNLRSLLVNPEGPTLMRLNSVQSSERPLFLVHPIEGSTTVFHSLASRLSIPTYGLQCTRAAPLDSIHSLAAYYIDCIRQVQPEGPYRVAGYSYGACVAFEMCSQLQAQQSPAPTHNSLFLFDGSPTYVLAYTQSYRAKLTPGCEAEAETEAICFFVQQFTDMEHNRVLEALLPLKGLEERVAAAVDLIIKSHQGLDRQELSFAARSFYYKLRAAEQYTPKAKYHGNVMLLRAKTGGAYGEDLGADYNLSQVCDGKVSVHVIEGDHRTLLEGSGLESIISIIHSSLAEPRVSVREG

Row | IC50 | SMILES
1 | 1.22 µM (active) | CC1CC(C)CN(C(=O)COC(=O)c2cc([N+](=O)[O-])ccc2N2CCOCC2)C1 (centres undefined)
2 | 4.91 µM (active) | COC(=O)c1ccc(CNC(=O)/C=C/c2cc([N+](=O)[O-])ccc2OC(F)F)cc1
3 | 7.66 µM (active) | Cc1csc(NC(=O)CCNC(=O)c2ccc([N+](=O)[O-])cc2)n1
4 | 6.62 µM (active) | CSCCC(NC(=O)c1ccc(Cl)c([N+](=O)[O-])c1)C(=O)N1CCN(C/C=C/c2ccccc2)CC1 (centres undefined)
5 | 0.41 µM (active) | CN(C(=O)COC(=O)c1cc([N+](=O)[O-])ccc1N1CCOCC1)C1CCCCC1
6 | 11.5 µM (active) | COc1ccc([N+](=O)[O-])cc1C(=O)Nc1ccc(Cc2ccncc2)cc1
7 | 0.683 µM (active) | CC(C)(C)c1ccc(CSc2ccc(S(=O)(=O)N3CCOCC3)cn2)cc1
8 | 3.61 µM (active) | COc1ccc(Cn2c(C)nc3ccc([N+](=O)[O-])cc3c2=O)cc1
9 | 3.41 µM (active) | O=C(COC(=O)c1ccc(Cl)c([N+](=O)[O-])c1)NC1CCCC1

Target: T1, Fatty acid synthase
Experiment: inhibition of human FAS-TE enzyme activity – biochemical, endpoint fluorescence intensity, uHTS hits, dose response (AID 624327);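 further: fluorescence from hydrolysis of an O-methyl fluorescein acyl ester substrate by the enzyme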
Type: functional
Details: not given

Row | IC50 | SMILES
10 | 1.3 µM (active) | CC1CC(C)CN(C(=O)COC(=O)c2cc([N+](=O)[O-])ccc2N2CCOCC2)C1 (centres undefined)
11 | 3.27 µM (active) | COC(=O)c1ccc(CNC(=O)/C=C/c2cc([N+](=O)[O-])ccc2OC(F)F)cc1
12 | 6.85 µM (active) | Cc1csc(NC(=O)CCNC(=O)c2ccc([N+](=O)[O-])cc2)n1
13 | 8.52 µM (active) | CSCCC(NC(=O)c1ccc(Cl)c([N+](=O)[O-])c1)C(=O)N1CCN(C/C=C/c2ccccc2)CC1 (centres undefined)
14 | 0.383 µM (active) | CN(C(=O)COC(=O)c1cc([N+](=O)[O-])ccc1N1CCOCC1)C1CCCCC1
15 | 10.9 µM (active) | COc1ccc([N+](=O)[O-])cc1C(=O)Nc1ccc(Cc2ccncc2)cc1
16 | 1.03 µM (active) | CC(C)(C)c1ccc(CSc2ccc(S(=O)(=O)N3CCOCC3)cn2)cc1
17 | 4.97 µM (active) | COc1ccc(Cn2c(C)nc3ccc([N+](=O)[O-])cc3c2=O)cc1
18 | 3.12 µM (active) | O=C(COC(=O)c1ccc(Cl)c([N+](=O)[O-])c1)NC1CCCC1

Target: Cytochrome P450 3A4 (Homo sapiens, UniProt P08684);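 further: confirmatory qHTS run detecting inhibitors and substrates of CYP3A4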
Sequence (P08684 whole entry): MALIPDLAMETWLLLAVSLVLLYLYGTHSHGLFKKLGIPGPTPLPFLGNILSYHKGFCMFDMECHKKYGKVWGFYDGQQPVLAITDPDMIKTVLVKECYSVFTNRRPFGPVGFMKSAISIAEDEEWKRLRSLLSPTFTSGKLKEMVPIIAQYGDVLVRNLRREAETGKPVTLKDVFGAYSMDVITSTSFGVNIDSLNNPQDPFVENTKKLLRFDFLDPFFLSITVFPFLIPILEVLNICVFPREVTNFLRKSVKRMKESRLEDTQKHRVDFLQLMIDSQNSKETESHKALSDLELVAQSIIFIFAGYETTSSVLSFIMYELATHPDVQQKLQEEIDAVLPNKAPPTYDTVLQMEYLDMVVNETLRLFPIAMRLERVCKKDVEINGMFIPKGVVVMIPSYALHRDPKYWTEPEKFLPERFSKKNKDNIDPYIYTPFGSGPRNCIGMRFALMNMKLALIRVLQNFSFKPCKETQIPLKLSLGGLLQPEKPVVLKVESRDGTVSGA
Details: Potency

Row | AC50 | SMILES
19 | 15.8 µM (inconclusive) | N#Cc1ccc(C23CC4(C2)[C@H](CN(CC2CCCCC2)[C@@H]4c2ccccc2)C3c2ccc(C(F)(F)F)cc2)cc1 (some centres undefined)
20 | 12.6 µM (inconclusive) | CC(=O)OCC(=O)[C@@]1(O)CCC2C3CC(C)C4=CC(=O)C=CC4(C)C3C(O)CC21C (some centres undefined)
21 | 10 µM (inconclusive) | Cc1nc(N2CCOCC2)c2nc(-c3ccccc3)n(CC(C)(C)CN(C)C)c2n1
22 | 3.98 µM (inconclusive) | COc1ccc(OC2C(O)COC2/C=C/C#Cc2ccccc2)cc1 (centres undefined)
23 | 12.6 µM (inconclusive) | COC(=O)[C@@H]1C[C@H]2CC[C@H](O)C[C@H]2N1Cc1ccc(-c2ccccc2)cc1
24 | 39.8 µM (inconclusive) | CC(=O)O[C@@]1(C(C)=O)CCC2C3CC(C)C4=CC(=O)CC[C@@]4(C)C3CC[C@]21C (some centres undefined)
25 | 31.6 µM (inconclusive) | COc1ccc2[nH]cc(CC(N)C(=O)O)c2c1 (centres undefined)
26 | 10 µM (inconclusive) | CCN(CC)CCCn1c(-c2ccccc2)nc2c(NCc3ccccc3)nc(C)nc21
27 | 31.6 µM (inconclusive) | COC(=O)[C@@H]1C[C@@]2(O)[C@H](O)[C@H](O)[C@H](O)C[C@H]2N1Cc1ccc(N2CCN(C)CC2)cc1

Row | SMILES | AC50
28 | c1ccc(Nc2ccc3ccccc3c2)cc1 | 25.1 µM (inconclusive)

Test system: not listed separately
Experiment: NIH-3T3 fibroblast cytotoxicity, dose response, cytotoxicity control, cell-based, fluorescence, Alamar Blue, secondary assay (AID 2327);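 further: NIH-3T3 mouse fibroblasts cultured with fluconazole at 8 µg/mL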
Type: functional
Details: not given

Row | SMILES | EC50
29 | OC(COc1ccc2c(c1)OCO2)CN1CCCC1 (centres undefined) | 53.2 µM (active)
